Structures can show the parent of a compound that is named as a salt.
Assays:
[1] = test system: Gram-positive bacteria; settings: background statement; cited from earlier work
[2] = Solubility observed on preparing formulations; format: physicochemical; settings: pH 5.5 versus pH 5.0
[3] = 21 °C and standard pressure; cited from earlier work

Q: For CN[C@H]1C(=O)N[C@@H]2Cc3ccc(cc3)Oc3cc4cc(c3O[C@@H]3O[C@H](C(=O)O)[C@@H](O)[C@H](O)[C@H]3NC(=O)CCCCCCCCC(C)C)Oc3ccc(cc3Cl)[C@@H](O)[C@@H]3NC(=O)[C@H](NC(=O)[C@@H]4NC(=O)[C@@H](NC2=O)c2cc(cc(O)c2Cl)Oc2cc1ccc2O)c1ccc(O)c(c1)-c1c(O[C@H]2O[C@H](CO)[C@@H](O)[C@H](O)[C@@H]2O)cc(O)cc1[C@@H](C(=O)NCCCN(C)C)NC3=O [Dalbavancin], which Antibiotic activity [1] is on record?
A: Its Antibiotic activity is “strong antibiotic activity”.

Q: With CN[C@H]1C(=O)N[C@@H]2Cc3ccc(cc3)Oc3cc4cc(c3O[C@@H]3O[C@H](C(=O)O)[C@@H](O)[C@H](O)[C@H]3NC(=O)CCCCCCCCC(C)C)Oc3ccc(cc3Cl)[C@@H](O)[C@@H]3NC(=O)[C@H](NC(=O)[C@@H]4NC(=O)[C@@H](NC2=O)c2cc(cc(O)c2Cl)Oc2cc1ccc2O)c1ccc(O)c(c1)-c1c(O[C@H]2O[C@H](CO)[C@@H](O)[C@H](O)[C@@H]2O)cc(O)cc1[C@@H](C(=O)NCCCN(C)C)NC3=O [dalbavancin hydrochloride] as the molecule, how does the Solubility [2] read?
A: Its Solubility is “reduced solubility”.

Q: With CC(O)C(=O)O (stereo not drawn) [lactic acid] as the molecule, how does the pKa [3] read?
A: Its pKa is 3.7.

Reference: US20260335229A1, “NOVEL COMPOSITIONS” (priority 2025, published 2026)
